Measurements taken from patent US11957687B2 (REGENERON PHARMACEUTICALS, INC., priority 2019, dated 2024).

Molecular target: HSD17B13 (Homo sapiens (Human), UniProt Q7Z5P4)
Test: HSD17B13 enzymatic inhibition assay (150 nM or 50 nM HSD17B13)
Format: biochemical
Conditions: 50 nM HSD17B13; read-out: Inhibition of 50 nM of HSD17B13 IC50

Chain of HSD17B13 (Q7Z5P4 other isoform, or with tags, fused parts or gaps): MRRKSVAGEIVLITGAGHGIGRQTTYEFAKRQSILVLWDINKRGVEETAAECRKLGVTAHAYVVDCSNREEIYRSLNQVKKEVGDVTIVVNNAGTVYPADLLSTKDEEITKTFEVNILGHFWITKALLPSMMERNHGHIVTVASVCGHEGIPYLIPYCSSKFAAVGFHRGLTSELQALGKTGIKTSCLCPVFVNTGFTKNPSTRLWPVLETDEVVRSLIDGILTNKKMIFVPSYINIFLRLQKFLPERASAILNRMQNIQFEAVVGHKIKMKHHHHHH

Compared with `COC1CCc2cc(C)ccc2C1NC(=O)c1ccc(C(F)(F)F)[nH]c1=O` (stereo not shown) [Compound 350, N-(2-methoxy-6-methyl-1,2,3,4-tetrahydronaphthalen-1-yl)-2-oxo-6-(trifluoromethyl)-1,2-dihydropyridine-3-carboxamide], `Cc1ccc2c(c1)CC(C)CC2NC(=O)c1ccc(C(F)(F)F)[nH]c1=O` (stereo not shown) [Compound 391, N-(3,6-dimethyl-1,2,3,4-tetrahydronaphthalen-1-yl)-2-oxo-6-(trifluoromethyl)-1,2-dihydropyridine-3-carboxamide] is 7.2-fold lower in IC50: 360 nM for the first, 50 nM for the second. The second is the more potent here.

`Cc1ccc2c(c1)OC(C)C2NC(=O)c1ccc(C(F)(F)F)[nH]c1=O` (stereo not shown) [Compound 356, N-(2,6-dimethyl-2,3-dihydrobenzofuran-3-yl)-2-oxo-6-(trifluoromethyl)-1,2-dihydropyridine-3-carboxamide] and `Cc1ccc2c(c1)C(NC(=O)c1ccc(C(F)(F)F)[nH]c1=O)C(C)O2` (stereo not shown) [Compound 363, N-(2,5-dimethyl-2,3-dihydrobenzofuran-3-yl)-2-oxo-6-(trifluoromethyl)-1,2-dihydropyridine-3-carboxamide] are within 1.5-fold of each other in IC50: 2160 nM for the first, 2470 nM for the second.

Compared with `CCC[C@H]1Oc2cc(C)ccc2[C@H]1NC(=O)c1ccc(C(F)(F)F)[nH]c1=O` [Compound 357, N-((2R,3R)-6-methyl-2-propyl-2,3-dihydrobenzofuran-3-yl)-2-oxo-6-(trifluoromethyl)-1,2-dihydropyridine-3-carboxamide], `CC[C@@H]1Oc2cc(C)ccc2[C@@H]1NC(=O)c1ccc(C(F)(F)F)[nH]c1=O` [Compound 359, N-((2S,3S)-2-ethyl-6-methyl-2,3-dihydrobenzofuran-3-yl)-2-oxo-6-(trifluoromethyl)-1,2-dihydropyridine-3-carboxamide] is 1.8-fold higher in IC50: 1180 nM for the first, 2150 nM for the second.

Going from `CC[C@@H]1C[C@@H](NC(=O)c2ccc(C(F)(F)F)[nH]c2=O)c2cc(C)ccc2N1` [Compound 364, N-((2R,4R)-2-ethyl-6-methyl-1,2,3,4-tetrahydroquinolin-4-yl)-2-oxo-6-(trifluoromethyl)-1,2-dihydropyridine-3-carboxamide] to `CC[C@H]1C[C@@H](NC(=O)c2ccc(C(F)(F)F)[nH]c2=O)c2cc(C)ccc2N1` [Compound 365, N-((2S,4R)-2-ethyl-6-methyl-1,2,3,4-tetrahydroquinolin-4-yl)-2-oxo-6-(trifluoromethyl)-1,2-dihydropyridine-3-carboxamide], the IC50 falls from 600 nM to 160 nM (3.8-fold). The second is the more potent here.

First: CC[C@@H]1C[C@@H](NC(=O)c2ccc(C(F)(F)F)[nH]c2=O)c2ccc(C)cc2N1 [Compound 367, N-((2R,4R)-2-ethyl-7-methyl-1,2,3,4-tetrahydroquinolin-4-yl)-2-oxo-6-(trifluoromethyl)-1,2-dihydropyridine-3-carboxamide]
Second: Cc1ccc2c(c1)[C@H](NC(=O)c1ccc(C(F)(F)F)[nH]c1=O)C[C@H](C)N2 [Compound 371, N-((2S,4R)-2,6-dimethyl-1,2,3,4-tetrahydroquinolin-4-yl)-2-oxo-6-(trifluoromethyl)-1,2-dihydropyridine-3-carboxamide]
The IC50 of the first is 3.7-fold lower: 380 nM for the first, 1420 nM for the second. The first is the more potent here.

`CCN1Cc2cc(C)ccc2C(NC(=O)c2ccc(C(F)(F)F)[nH]c2=O)C1=O` (stereo not shown) [Compound 373, N-(2-ethyl-7-methyl-3-oxo-1,2,3,4-tetrahydroisoquinolin-4-yl)-2-oxo-6-(trifluoromethyl)-1,2-dihydropyridine-3-carboxamide] and `Cc1ccc2c(c1)CN(C)C(=O)C2NC(=O)c1ccc(C(F)(F)F)[nH]c1=O` (stereo not shown) [Compound 375, N-(2,7-dimethyl-3-oxo-1,2,3,4-tetrahydroisoquinolin-4-yl)-2-oxo-6-(trifluoromethyl)-1,2-dihydropyridine-3-carboxamide] are within 1.5-fold of each other in IC50: 1730 nM for the first, 2400 nM for the second.

Compared with `Cc1ccc2c(c1)CNC(=O)C2NC(=O)c1ccc(C(F)(F)F)[nH]c1=O` (stereo not shown) [Compound 374, N-(7-methyl-3-oxo-1,2,3,4-tetrahydroisoquinolin-4-yl)-2-oxo-6-(trifluoromethyl)-1,2-dihydropyridine-3-carboxamide], `Cc1ccc2c(c1)C(NC(=O)c1ccc(C(F)(F)F)[nH]c1=O)CS2` (stereo not shown) [Compound 393, N-(5-methyl-2,3-dihydrobenzo[b]thiophen-3-yl)-2-oxo-6-(trifluoromethyl)-1,2-dihydropyridine-3-carboxamide] is 2-fold lower in IC50: 2490 nM for the first, 1230 nM for the second. The second is the more potent here.

First: Cc1ccc2c(c1)c(NC(=O)c1ccc(C(F)(F)F)[nH]c1=O)cn2C [Compound 376, N-(1,5-dimethyl-1H-indol-3-yl)-2-oxo-6-(trifluoromethyl)-1,2-dihydropyridine-3-carboxamide]
Second: Cc1ccc2c(NC(=O)c3ccc(C(F)(F)F)[nH]c3=O)cn(C)c2c1 [Compound 379, N-(1,6-dimethyl-1H-indol-3-yl)-2-oxo-6-(trifluoromethyl)-1,2-dihydropyridine-3-carboxamide]
The IC50 of the first is 1.7-fold lower: 2840 nM for the first, 4820 nM for the second. The first is the more potent here.

First: Cc1ccc2[nH]cc(NC(=O)c3ccc(C(F)(F)F)[nH]c3=O)c2c1 [Compound 377, N-(5-methyl-1H-indol-3-yl)-2-oxo-6-(trifluoromethyl)-1,2-dihydropyridine-3-carboxamide]
Second: Cc1ccc2[nH]c(C)c(NC(=O)c3ccc(C(F)(F)F)[nH]c3=O)c2c1 [Compound 378, N-(2,5-dimethyl-1H-indol-3-yl)-2-oxo-6-(trifluoromethyl)-1,2-dihydropyridine-3-carboxamide]
The IC50 of the first is 10-fold higher: 7770 nM for the first, 760 nM for the second. The second is the more potent here.

Compared with `Cc1ccc2c(NC(=O)c3ccc(C(F)(F)F)[nH]c3=O)coc2c1` [Compound 380, N-(6-methylbenzofuran-3-yl)-2-oxo-6-(trifluoromethyl)-1,2-dihydropyridine-3-carboxamide], `Cc1ccc2c(c1)C(NC(=O)c1ccc(C(F)(F)F)[nH]c1=O)CC(C)O2` (stereo not shown) [Compound 394, N-(2,6-dimethylchroman-4-yl)-2-oxo-6-(trifluoromethyl)-1,2-dihydropyridine-3-carboxamide] is lower in IC50: > 10000 nM for the first, 260 nM for the second.

`CCCC1CC(NC(=O)c2ccc(C(F)(F)F)[nH]c2=O)c2ccc(C)cc2S1` (stereo not shown) [Compound 381, N-(7-methyl-2-propylthiochroman-4-yl)-2-oxo-6-(trifluoromethyl)-1,2-dihydropyridine-3-carboxamide] and `CCCC1CC(NC(=O)c2ccc(C(F)(F)F)[nH]c2=O)c2cc(C)ccc2S1` (stereo not shown) [Compound 382, N-(6-methyl-2-propylthiochroman-4-yl)-2-oxo-6-(trifluoromethyl)-1,2-dihydropyridine-3-carboxamide] are the same in IC50: 130 nM for the first, 130 nM for the second.

Compared with `Cc1ccc2c(c1)C(NC(=O)c1ccc(C(F)(F)F)[nH]c1=O)CC(C)S2` (stereo not shown) [Compound 386, N-(2,6-dimethylthiochroman-4-yl)-2-oxo-6-(trifluoromethyl)-1,2-dihydropyridine-3-carboxamide], `COc1ccc2c(c1)CC(C)CC2NC(=O)c1ccc(C(F)(F)F)[nH]c1=O` (stereo not shown) [Compound 389, N-(6-methoxy-3-methyl-1,2,3,4-tetrahydronaphthalen-1-yl)-2-oxo-6-(trifluoromethyl)-1,2-dihydropyridine-3-carboxamide] is 3.4-fold higher in IC50: 170 nM for the first, 580 nM for the second. The first is the more potent here.

Work on `CCCC1Cc2cc(OC)ccc2C(NC(=O)c2ccc(C(F)(F)F)[nH]c2=O)C1` (stereo not shown) [Compound 392, N-(6-methoxy-3-propyl-1,2,3,4-tetrahydronaphthalen-1-yl)-2-oxo-6-(trifluoromethyl)-1,2-dihydropyridine-3-carboxamide] yielded an IC50 of 80 nM.
